This is an account of results in patent US10047104B2, “Bicyclic heterocyclyl derivatives as IRAK4 inhibitors” (Aurigene Discovery Technologies Limited, priority 2014, dated 2018).

Counter-ions that a name gives are not always drawn.

In the assay the target is T1, recombinant IRAK-4 kinase (Homo sapiens, UniProt Q9NWZ3).
T1 construct: purchased Millipore, USA
T1 sequence (Q9NWZ3 1-460): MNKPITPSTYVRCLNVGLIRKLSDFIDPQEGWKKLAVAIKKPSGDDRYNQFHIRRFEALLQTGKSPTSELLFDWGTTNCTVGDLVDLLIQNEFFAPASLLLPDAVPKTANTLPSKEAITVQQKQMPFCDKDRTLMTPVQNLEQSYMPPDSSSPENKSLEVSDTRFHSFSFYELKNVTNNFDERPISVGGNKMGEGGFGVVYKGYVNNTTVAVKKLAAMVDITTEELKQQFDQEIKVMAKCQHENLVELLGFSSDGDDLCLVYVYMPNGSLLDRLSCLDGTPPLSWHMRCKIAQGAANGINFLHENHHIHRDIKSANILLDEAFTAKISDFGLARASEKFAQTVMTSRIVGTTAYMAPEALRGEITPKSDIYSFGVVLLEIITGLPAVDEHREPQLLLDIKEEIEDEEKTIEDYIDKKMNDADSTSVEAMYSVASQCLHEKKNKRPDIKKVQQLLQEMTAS
Kind of assay: IRAK-4 Biochemical Assay (TR-FRET). To be noted: 5 ng IRAK-4 kinase, 100 nM Biotin Histone H3, 20 μM ATP, 30 minutes pre-incubation, read-out: IC50 values for IRAK4 activity. Here is the method:
Compounds were tested for their potential to inhibit IRAK-4 enzyme in a TR-FRET assay using recombinant IRAK-4 kinase from Millipore, USA. The assay buffer was 50 mM Tris-HCl pH 7.5, 20 mM MgCl2, 1 mM EGTA, 2 mM DTT, 3 mM MnCl2 and 0.01% Tween20. 5 ng of IRAK-4 kinase was used for the assay. After pre-incubation of enzyme with test compound for 30 minutes at room temperature, a substrate mix containing 100 nM Biotin Histone H3 (Millipore, USA) and 20 μM ATP (Sigma, USA) was added and the reaction was incubated for 30 minutes. Post incubation, the reaction was stopped by the addition of stop mix containing 40 mM EDTA, 1 nM of Europium-Anti-Phospho-Histone H3 (Ser10) antibody (Perkin Elmer, USA) and 20 nM Sure Light Allophycocyanin-Streptavidin (Perkin Elmer, USA).
Background: Time-resolved FRET reads energy transfer from a long-lived donor to a nearby acceptor.
A word on the IC50: it is the concentration needed to halve the response being measured. With `O=C(Nc1cc2sc(N3CCOCC3)nc2nc1N1CCCCC1)c1cccc(N2CC[C@H](O)C2)n1` [Example 63, (S)-6-(3-hydroxypyrrolidin-1-yl)-N-(2-morpholino-5-(piperidin-1-yl)thiazolo[4,5-b]pyridin-6-yl)picolinamide], the IC50 is less than 50 nM. As to `Cc1cc(-c2nc(C(=O)Nc3cc4oc(N5CCCCC5)nc4nc3N3CCC3)co2)ccn1` [Example 109, N-(5-(azetidin-1-yl)-2-(piperidin-1-yl)oxazolo[4,5-b]pyridin-6-yl)-2-(2-methylpyridin-4-yl)oxazole-4-carboxamide], the IC50 was greater than 100 nM.

For the compound `O=C(Nc1cnc2nc(N3CCOCC3)sc2c1)c1cccc(-c2cn[nH]c2)n1` [Example 17, N-(2-morpholinothiazolo[4,5-b]pyridin-6-yl)-6-(1H-pyrazol-4-yl)picolinamide], the IC50 was greater than 100 nM. For the compound `Cc1cnccc1-c1nc(C(=O)Nc2cc3sc(N4CCOCC4)nc3nc2N2CCCCC2)co1` [Example 61, 2-(3-methylpyridin-4-yl)-N-(2-morpholino-5-(piperidin-1-yl)thiazolo[4,5-b]pyridin-6-yl)oxazole-4-carboxamide], the IC50 is less than 50 nM. As for `Cc1ncccc1-c1nc(C(=O)Nc2cc3oc(N4CCCCC4)nc3nc2N2CCCCC2)co1` [Example 27, N-(2,5-di(piperidin-1-yl)oxazolo[4,5-b]pyridin-6-yl)-2-(2-methylpyridin-3-yl)oxazole-4-carboxamide], the figure is less than 50 nM; as for `Cc1cc(-c2nc(C(=O)Nc3cc4oc(N5CCOCC5)nc4nc3-c3ccoc3)co2)ccn1` [Example 116, N-(5-(furan-3-yl)-2-morpholinooxazolo[4,5-b]pyridin-6-yl)-2-(2-methylpyridin-4-yl)oxazole-4-carboxamide], less than 50 nM; as for `Cc1cc(-c2nc(C(=O)Nc3cc4oc(N5CCOCC5)nc4nc3N[C@H]3CCNC3)co2)ccn1` [Example 11, (S)-2-(2-methylpyridin-4-yl)-N-(2-morpholino-5-(pyrrolidin-3-ylamino)oxazolo[4,5-b]pyridin-6-yl)oxazole-4-carboxamide], less than 50 nM. As for `Nc1cc(-c2nc(C(=O)Nc3cc4sc(N5CCOCC5)nc4nc3N3CCC(O)CC3)co2)ccn1` [Example 130, 2-(2-aminopyridin-4-yl)-N-(5-(4-hydroxypiperidin-1-yl)-2-morpholinothiazolo[4,5-b]pyridin-6-yl)oxazole-4-carboxamide hydrochloride], the figure is less than 50 nM. As for `COc1ccc(-c2nc(C(=O)Nc3cc4sc(N5CCOCC5)nc4nc3N3CC[C@H](O)C3)co2)cn1` [Example 77, (S)—N-(5-(3-hydroxypyrrolidin-1-yl)-2-morpholinothiazolo[4,5-b]pyridin-6-yl)-2-(6-methoxypyridin-3-yl)oxazole-4-carboxamide], the concentration for half-maximal inhibition (IC50) was less than 50 nM. For the compound `N[C@H]1CCN(c2nc(C(=O)Nc3cc4sc(N5CCOCC5)nc4nc3C3CC3)co2)C1` [Example 68, (S)-2-(3-aminopyrrolidin-1-yl)-N-(5-cyclopropyl-2-morpholinothiazolo[4,5-b]pyridin-6-yl)oxazole-4-carboxamide], the IC50 fell in the range of 50 to 100 nM. On to `Cc1cc(-c2nc(C(=O)Nc3cc4sc(N5CCOCC5)nc4nc3N3CCC(O)CC3)co2)ccn1` [Example 84, N-(5-(4-hydroxypiperidin-1-yl)-2-morpholinothiazolo[4,5-b]pyridin-6-yl)-2-(2-methylpyridin-4-yl)oxazole-4-carboxamide], for which the concentration for half-maximal inhibition (IC50) was less than 50 nM.

`N[C@H]1CCN(c2nc(C(=O)Nc3cc4oc(N5CCOCC5)nc4nc3C3CC3)co2)C1` [Example 47, (S)-2-(3-aminopyrrolidin-1-yl)-N-(5-cyclopropyl-2-morpholinooxazolo[4,5-b]pyridin-6-yl)oxazole-4-carboxamide]: the IC50 is less than 50 nM. As for `Cc1cc(-c2nc(C(=O)Nc3cc4oc(N5CCOCC5)nc4nc3N3CCCC3)co2)ccn1` [Example 112, 2-(2-methylpyridin-4-yl)-N-(2-morpholino-5-(pyrrolidin-1-yl)oxazolo[4,5-b]pyridin-6-yl)oxazole-4-carboxamide], the figure is greater than 100 nM; as for `COc1ccc(-c2nc(C(=O)Nc3cc4sc(N5CCOCC5)nc4nc3N3CCCCC3)co2)cn1` [Example 57, 2-(6-methoxypyridin-3-yl)-N-(2-morpholino-5-(piperidin-1-yl)thiazolo[4,5-b]pyridin-6-yl)oxazole-4-carboxamide], less than 50 nM.

Consider `CC(=O)Nc1cc(-c2nc(C(=O)Nc3cc4sc(N5CCOCC5)nc4nc3N3CCC(O)CC3)co2)ccn1` [Example 125, 2-(2-acetamidopyridin-4-yl)-N-(5-(4-hydroxypiperidin-1-yl)-2-morpholinothiazolo[4,5-b]pyridin-6-yl)oxazole-4-carboxamide], for which the IC50 was less than 50 nM. As to `O=C(Nc1cc2sc(N3CCOCC3)nc2nc1N1CCC1)c1cccc(N2CC[C@H](O)C2)n1` [Example 79, (S)—N-(5-(azetidin-1-yl)-2-morpholinothiazolo[4,5-b]pyridin-6-yl)-6-(3-hydroxypyrrolidin-1-yl)picolinamide], the IC50 lay in the range of 50 to 100 nM.

With `O=C(Nc1cc2oc(N3CCCCC3)nc2nc1N1CCCCC1)c1coc(-c2cccnc2O)n1` [Example 28, N-(2,5-di(piperidin-1-yl)oxazolo[4,5-b]pyridin-6-yl)-2-(2-hydroxypyridin-3-yl)oxazole-4-carboxamide], the IC50 is greater than 100 nM.

As for `Cc1cc(-c2nc(C(=O)Nc3cc4sc(N5CCOCC5)nc4nc3N3CCC[C@H](F)C3)co2)ccn1` [Example 59, (S)—N-(5-(3-fluoropiperidin-1-yl)-2-morpholinothiazolo[4,5-b]pyridin-6-yl)-2-(2-methylpyridin-4-yl)oxazole-4-carboxamide], the IC50 was less than 50 nM. On to `N[C@H]1CCN(c2cccc(C(=O)Nc3cc4sc(N5CCOCC5)nc4nc3N3CCCCC3)n2)C1` [Example 62, (S)-6-(3-aminopyrrolidin-1-yl)-N-(2-morpholino-5-(piperidin-1-yl)thiazolo[4,5-b]pyridin-6-yl)picolinamide], for which the half-maximal inhibitory concentration (IC50) is less than 50 nM. As for `Cc1cc(-c2ccc(C(=O)Nc3cc4sc(N5CCOCC5)nc4nc3N3CCC(O)CC3)o2)ccn1` [Example 101, N-(5-(4-hydroxypiperidin-1-yl)-2-morpholinothiazolo[4,5-b]pyridin-6-yl)-5-(2-methylpyridin-4-yl)furan-2-carboxamide], the figure is less than 50 nM; as for `Cc1cc(-c2nc(C(=O)Nc3cc4sc(N5CCOCC5)nc4nc3N3CCC[C@H](N)C3)co2)ccn1` [Example 120, (S)—N-(5-(3-aminopiperidin-1-yl)-2-morpholinothiazolo[4,5-b]pyridin-6-yl)-2-(2-methylpyridin-4-yl)oxazole-4-carboxamide hydrochloride], less than 50 nM; as for `COc1cc(-c2nc(C(=O)Nc3cc4sc(N5CCOCC5)nc4nc3N3CCCCC3)co2)ccn1` [Example 58, 2-(2-methoxypyridin-4-yl)-N-(2-morpholino-5-(piperidin-1-yl)thiazolo[4,5-b]pyridin-6-yl)oxazole-4-carboxamide], less than 50 nM. `Cc1cc(-c2nc(C(=O)Nc3cc4sc(N5CCOCC5)nc4nc3N3CCC(F)CC3)co2)ccn1` [Example 98, N-(5-(4-fluoropiperidin-1-yl)-2-morpholinothiazolo[4,5-b]pyridin-6-yl)-2-(2-methylpyridin-4-yl)oxazole-4-carboxamide]: the IC50 is less than 50 nM.
